Common to all, as to assay type: cell-based
The subject of assay [1] is mouse cholangiocyte-derived liver organoids (CLOs). Kind of assay: Liver fibrosis model with mouse CLO. How it is done:
For disease modeling using an LEM-based liver organoid, TGF-beta was screened at each concentration and the possibility of inducing liver fibrosis was checked. A model was induced using mouse cholangiocyte-derived liver organoids (CLOs) cultured for 7 days. To construct a liver fibrosis model, the organoids were treated with TGF-β at each concentration for 48 hours and observed.

For assay [2], the system named is human cholangiocyte-derived liver organoids (hCLOs). As to the kind of experiment: Liver fibrosis model with hCLO. Particulars: hCLO in LEM, 3 days. As to the method:
Meanwhile, for disease modeling using human cholangiocyte-derived liver organoids (hCLOs) cultured in the LEM, TGF-β was tested at each concentration and the organoids were treated with the most appropriate concentration of TGF-β (80 ng/ml). Then, the possibility of inducing liver fibrosis was checked.
To verify a liver fibrosis model, SMA (Smooth Muscle Actin) was used for staining to determine the accumulated extracellular matrix (ECM) around the organoids. Through this experiment, it was verified that a human liver fibrosis model can be constructed using a liver organoid cultured in the LEM scaffold (FIG. 79B).

For a further assay, the system named is mouse lung organoid. Kind of assay: Lung fibrosis model with mouse lung organoid. As to the method: Specifically, lung organoids were treated for 3 days at respective concentrations on day 4 of culture and analyzed on day 7. A lung organoid that was not treated with TGF-β (NT, No treatment) was used as a control group.
For the next assay, the system named is human lung organoid. As to the kind of experiment: Lung fibrosis model with human lung organoid. How it is done:
Specifically, human lung organoids cultured in respective scaffolds were treated with TGF-β for 3 days and then analyzed.

For the substance TGF-β, the “expression of liver fibrosis markers” value in assay [1] (4 ng/ml TGF-β, qPCR) was “highest”. The “liver organoid morphology and growth” value in assay [1] (TGF-β each concentration, 48 hours) was “changed in morphology and did not grow well”. In addition, in assay [1] (organoids cultured in LEM), the cholangiocyte marker expression entry is “significantly decreased” and the fibrosis marker expression result is given as “greatly increased”. For the same substance, in assay [2], the “liver organoid morphology and growth” value is “deformed in morphology and did not grow well”. For the same substance, in the assay with mouse lung organoid, the “SMA and Col1 expression (immunostaining)” value is recorded as “increase as the TGF-β treatment concentration increases”. Besides, the Col1a2 expression entry in the assay on mouse lung organoid (40 ng/ml) is reported as “increased statistically significantly”. For the same substance, in the assay with mouse lung organoid (TGF-β each concentration, 3 days), the “lung organoid shape and growth” value was “changed in shape and did not grow well”. Besides, the “SMA, COL1 and VIM expression (immunostaining)” value in the assay with human lung organoid (3 days after treatment) is “increased”. Besides, in the assay on human lung organoid (3 days, quantitative PCR), the “ACTA2, COL1A2 and TNF-α expression” value was “significantly increased”.
